Test results from patent US9593362B2, “Fluorogenic glycosidase substrate and associated detection method” (ECOLE NORMALE SUPERIEURE DE LYON, priority 2012, dated 2017).

Columns and labels:
[1] = cited from earlier work
[2] = tested on: cells of C17.2 type which express the target enzyme b-gal constitutively; assay: Incubation of the probe with C17.2 cells, microplate fluorescence; type: cell-based; details: probe 25 μM, culture plate without serum
Method: The experiment was conducted in a cell culture plate without serum, and the fluorescence signal was measured by the microplate spectrofluorimeter of Mithras LB 940 type by BERTHOLD TECHNOLOGIES.

[3] = tested on: cells expressing b-gal constitutively; assay: Fluorescence microscopy of cells incubated with the probe; type: cell-based; details: probe 25 μM, 48 hours, serum-free medium
Method: FIG. 4 is a microscope image of the fluorescence of cells expressing b-gal constitutively and which were incubated by probe I.1 at 25 μM for 48 hours in a serum-free medium.

[4] = tested on: beta-galactosidase (EC 3.2.1.23; b-gal); assay: Enzymatic assay: incubation of the probe with beta-galactosidase, microplate fluorescence; type: biochemical
Method: (§1) Probe I.1 was evaluated by incubation with the target enzyme beta-galactosidase (EC 3.2.1.23; <<b-gal>>; commercial) in in vitro medium and in multi-well micro-plates designed for fluorescence readers.
(§2) The main assays were conducted at 25° C. in solutions buffered at pH 7.4, physiological pH). Assays at 37° C. would have required protection of the wells against early evaporation e.g. by covering with a film which would have caused a strong reduction in the sensitivity of fluorescence measurement. A temperature of 25° C. was therefore preferred.
In the invention when implementing the enzymatic assays, once the minimum concentration allowing triggering of crystal nucleation is reached, there is depositing of a solid fluorophore in a well of a multi-well plate.
(§3) The following enzymatic assays of probe I.1 were performed in a 96-well microplate in a microplate spectrofluorimeter of Mithras LB 940 type by BERTHOLD TECHNOLOGIES. The excitation wavelength was set at 355 and the detection wavelength at 510 nm, conforming to the spectral properties of dichloro-HPQ.

[5] = Negative control of the enzymatic assay: probe in buffered aqueous medium without enzyme (background fluorescence / hydrolytic robustness); type: physicochemical; details: probe 25 μM, no b-gal, pH 7.4, 25° C., excitation 355 / detection 510 nm
Method: as §1, §2, §3

**Q.** Which “solubility in aqueous/physiological media” value [1] does the source give for `O=c1[nH]c(-c2cc(Cl)ccc2O)nc2ccc(Cl)cc12` [dichloro-HPQ, 6-chloro-2-(5-chloro-2-hydroxyphenyl)-4(3H)-Quinazolinone] here?
**A.** The value was “fully insoluble”.

**Q.** For `O=C(Oc1ccc(Cl)cc1-c1nc2ccc(Cl)cc2c(=O)[nH]1)N1CCCCC1CO[C@@H]1O[C@H](CO)[C@H](O)[C@H](O)[C@H]1O` (stereo partly shown) [probe I.1], which “capacity to cross the cell membrane” value [2] is on record?
**A.** The value was “cross the cell membrane”.

**Q.** And the “conversion by intracellular b-gal (fluorescence signal)” value [2]?
**A.** The value was “converted by the enzyme”.

**Q.** What about the “fluorescent precipitate in cells (microscope image)” value [3] of the same compound?
**A.** Its value is “highly fluorescent dichloro-HPQ is precipitated”.

**Q.** What about the “trend in fluorescence signal with increasing probe concentration” value ([4]; b-gal fixed at 20 μM, three concentrations of probe) of the same compound?
**A.** The value was “Strong growth of the signal”.

**Q.** And the “dependence of the fluorescence signal on the concentration of target enzyme” value ([4]; probe fixed at 25 μM, three concentrations of b-gal)?
**A.** Its value is “independency of the signal”.

**Q.** And the “trend in the fluorescence signal in the absence of enzyme (negative control)” value [5]?
**A.** Its value is “total absence of a fluorescence signal”.
